Reference: patent US20220162610A1, “NOVEL RNA TRANSCRIPT” (PTC Therapeutics, Inc., priority 2020, published 2022)

Test: Oral pharmacokinetics in WT littermates of the BACHD colony
Assay type: in vivo, mouse
Details: single oral dose of 10 mg/kg
Protocol: Oral pharmacokinetics (PK) of compounds was evaluated in WT littermates from the BACHD colony (FVB background). Mice were treated with test compounds (10 mg/kg) by oral gavage in 0.5% hydroxypropylmethyl cellulose (HPMC) with 0.1% Tween 80. Blood was collected by terminal cardiac puncture at specified time points (3 mice per time point) and centrifuged to generate plasma. Brain tissue was collected at the time of blood collection and homogenized in water. Protein was precipitated from plasma and brain homogenates with acetonitrile, methanol mixture (5:1, v:v) containing an internal standard that is a close analog of the test compounds. The mixture was filtered through an EMD Millipore MultiScreen™ Solvinert Filter Plate (MSRLN04, Millipore, Burlington, Mass.). Calibration standards were prepared in the same matrix and processed with the testing samples. Filtrates were analysed using Acquity ultra performance liquid chromatography (UPLC) system (Waters Corporation) tandem with Xevo TQ-s Spectrometer (Waters Corporation). Samples were injected on to a Waters UPLC Acquity BEH C18 Column (2.1*50 mm, 1.7 μm) maintained at 50° C. The injection volume was 3 μL and the mobile phase flow rate was 0.45 mL/min. The mobile phase consisted of 2 solvents: A) 0.1% formic acid in water and B) 0.1% formic acid in acetonitrile. […]

- plasma exposure: superior exposure to HTT-C1
Compound: CC1(C)CC(Oc2ccc(-c3ccc(-c4cn[nH]c4)cc3O)nn2)CC(C)(C)N1 [HTT-C2]
